Source: publication PMC5901408 (Pest Management Science, 2017)
Changes are numbered by the printed parent chain.

How the values were obtained:
ZmEPSPS [1] = biological target: T1, ZmEPSPS (Zea mays, UniProt A0A1D6NVZ6, P168A/T164I); assay: EPSPS enzyme activity assay, glyphosate titration; format: biochemical
T1 sequence (A0A1D6NVZ6 63-506 T164I/P168A): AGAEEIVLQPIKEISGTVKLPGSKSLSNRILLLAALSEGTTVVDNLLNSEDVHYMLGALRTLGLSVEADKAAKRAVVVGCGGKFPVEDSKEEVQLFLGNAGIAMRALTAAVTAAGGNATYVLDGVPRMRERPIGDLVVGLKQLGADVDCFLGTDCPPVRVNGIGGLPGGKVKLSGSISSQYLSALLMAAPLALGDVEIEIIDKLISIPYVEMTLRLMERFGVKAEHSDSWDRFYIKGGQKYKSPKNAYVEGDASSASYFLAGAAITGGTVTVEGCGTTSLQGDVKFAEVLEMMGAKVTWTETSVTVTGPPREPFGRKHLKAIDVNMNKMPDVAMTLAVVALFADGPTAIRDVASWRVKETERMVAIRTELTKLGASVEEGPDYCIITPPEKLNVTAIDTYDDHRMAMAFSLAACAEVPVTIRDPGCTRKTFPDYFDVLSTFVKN

ZmEPSPS [2] = biological target: T2, ZmEPSPS (Zea mays, UniProt A0A1D6NVZ6); assay: EPSPS enzyme activity assay, glyphosate titration; format: biochemical
T2 sequence (A0A1D6NVZ6 63-506): T1 sequence (A0A1D6NVZ6 63-506 T164I/P168A) with I102T, A106P

O=C(O)CNCP(=O)(O)O [glyphosate]
IC50 (ZmEPSPS [1]): 19.5 ± 2.8 mM
IC50 (ZmEPSPS [2]): 13.9 ± 3.5 µM
